# Test results: ChEMBL document CHEMBL4052802, “Design, synthesis and biological evaluation of novel 3-oxo-4-oxa-5α-androst-17β-amide derivatives as dual 5α-reductase inhibitors and androgen receptor antagonists” (Bioorg Med Chem Lett, 2017)
# Key:
# Rattus norvegicus = species: Rattus norvegicus; test: Inhibition of rat liver 5alpha-reductase at 50 uM using testosterone as substrate incubated for 30 mins measured for 10 mins by fluorescence assay relative to control
# LNCaP [1] = test: Growth inhibition of human LNCAP cells at 80 uM after 48 hrs by MTT assay relative to control; assay type: functional; conditions: read-out: GI
# [2] = biological target: Androgen receptor (Homo sapiens) (UniProt P10275); test: Inhibition of recombinant human His-tagged/GST-fused androgen receptor LBD expressed in baculovirus expression system at 50 uM measured after 1.5 hrs by fluorescence polarization assay relative to control
# PC-3 [3] = test: Growth inhibition of human PC3 cells at 80 uM after 48 hrs by MTT assay relative to control; assay type: functional; conditions: PC-3, 48 h, read-out: GI
# PC-3 [4] = test: Cytotoxicity against human PC3 cells after 48 hrs by MTT assay; assay type: functional, cell-based; conditions: PC-3, 48 h
# [5] = biological target: T1, 3-oxo-5-alpha-steroid 4-dehydrogenase 1 (Homo sapiens, UniProt P18405); test: Inhibition of recombinant human 5alpha-reductase type1 expressed in baculovirus expression system using [7-3H]T as substrate pretreated for 18 hrs followed by substrate addition measured after 90 mins by reverse-phase HPLC method
# T1 sequence (P18405 whole entry): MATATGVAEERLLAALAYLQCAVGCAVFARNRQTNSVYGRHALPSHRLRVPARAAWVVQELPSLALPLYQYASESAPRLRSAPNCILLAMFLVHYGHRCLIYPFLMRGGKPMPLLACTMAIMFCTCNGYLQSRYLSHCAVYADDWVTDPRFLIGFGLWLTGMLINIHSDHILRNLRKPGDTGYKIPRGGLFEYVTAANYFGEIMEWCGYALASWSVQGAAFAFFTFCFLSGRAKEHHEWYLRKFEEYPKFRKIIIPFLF
# [6] = biological target: T2, 3-oxo-5-alpha-steroid 4-dehydrogenase 2 (Homo sapiens, UniProt P31213); test: Inhibition of recombinant human 5alpha-reductase type2 expressed in baculovirus expression system using [7-3H]T as substrate pretreated for 18 hrs followed by substrate addition by reverse-phase HPLC method
# T2 sequence (P31213 whole entry): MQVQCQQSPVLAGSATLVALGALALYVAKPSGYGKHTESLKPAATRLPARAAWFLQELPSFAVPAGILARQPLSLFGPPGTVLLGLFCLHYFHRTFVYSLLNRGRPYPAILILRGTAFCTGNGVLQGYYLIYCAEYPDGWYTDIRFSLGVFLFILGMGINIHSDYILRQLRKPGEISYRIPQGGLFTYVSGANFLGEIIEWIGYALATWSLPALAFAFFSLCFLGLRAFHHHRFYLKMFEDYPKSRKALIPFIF
# Androgen receptor [7] = biological target: T3, Androgen receptor (Homo sapiens, UniProt P10275); test: Displacement of [3H]-DHT from recombinant human androgen receptor expressed in CHO cells; assay type: cell-based
# T3 sequence (P10275 whole entry): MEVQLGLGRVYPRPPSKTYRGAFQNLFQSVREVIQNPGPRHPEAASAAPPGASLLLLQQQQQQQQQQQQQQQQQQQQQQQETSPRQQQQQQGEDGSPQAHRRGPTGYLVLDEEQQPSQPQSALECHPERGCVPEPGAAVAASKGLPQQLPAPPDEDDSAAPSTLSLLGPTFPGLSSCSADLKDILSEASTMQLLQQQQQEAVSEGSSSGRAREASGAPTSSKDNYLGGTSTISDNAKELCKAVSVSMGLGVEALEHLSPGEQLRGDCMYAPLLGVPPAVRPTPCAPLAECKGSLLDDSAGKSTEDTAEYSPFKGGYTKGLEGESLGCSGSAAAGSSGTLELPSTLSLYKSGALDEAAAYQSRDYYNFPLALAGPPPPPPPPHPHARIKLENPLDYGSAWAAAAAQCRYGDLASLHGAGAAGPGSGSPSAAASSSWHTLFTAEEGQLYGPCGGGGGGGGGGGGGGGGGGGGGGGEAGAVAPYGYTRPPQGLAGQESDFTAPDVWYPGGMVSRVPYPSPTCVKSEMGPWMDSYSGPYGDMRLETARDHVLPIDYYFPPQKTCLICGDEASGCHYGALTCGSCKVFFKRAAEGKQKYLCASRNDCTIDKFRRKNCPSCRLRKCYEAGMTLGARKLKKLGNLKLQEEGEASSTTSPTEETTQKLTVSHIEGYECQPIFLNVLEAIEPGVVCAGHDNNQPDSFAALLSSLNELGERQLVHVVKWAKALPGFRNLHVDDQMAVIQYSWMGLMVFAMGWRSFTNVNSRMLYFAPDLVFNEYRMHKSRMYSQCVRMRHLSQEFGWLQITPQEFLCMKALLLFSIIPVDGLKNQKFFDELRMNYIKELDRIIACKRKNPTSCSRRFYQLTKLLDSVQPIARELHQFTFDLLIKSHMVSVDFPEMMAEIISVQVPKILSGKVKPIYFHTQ
# Androgen receptor [8] = biological target: T4, Androgen receptor (Rattus norvegicus, UniProt P15207); test: Displacement of fluormone-AL Green from recombinant rat His-tagged/GST-fused androgen receptor LBD expressed in baculovirus expression system measured after 1.5 hrs by fluorescence polarization assay
# T4 sequence (P15207 whole entry): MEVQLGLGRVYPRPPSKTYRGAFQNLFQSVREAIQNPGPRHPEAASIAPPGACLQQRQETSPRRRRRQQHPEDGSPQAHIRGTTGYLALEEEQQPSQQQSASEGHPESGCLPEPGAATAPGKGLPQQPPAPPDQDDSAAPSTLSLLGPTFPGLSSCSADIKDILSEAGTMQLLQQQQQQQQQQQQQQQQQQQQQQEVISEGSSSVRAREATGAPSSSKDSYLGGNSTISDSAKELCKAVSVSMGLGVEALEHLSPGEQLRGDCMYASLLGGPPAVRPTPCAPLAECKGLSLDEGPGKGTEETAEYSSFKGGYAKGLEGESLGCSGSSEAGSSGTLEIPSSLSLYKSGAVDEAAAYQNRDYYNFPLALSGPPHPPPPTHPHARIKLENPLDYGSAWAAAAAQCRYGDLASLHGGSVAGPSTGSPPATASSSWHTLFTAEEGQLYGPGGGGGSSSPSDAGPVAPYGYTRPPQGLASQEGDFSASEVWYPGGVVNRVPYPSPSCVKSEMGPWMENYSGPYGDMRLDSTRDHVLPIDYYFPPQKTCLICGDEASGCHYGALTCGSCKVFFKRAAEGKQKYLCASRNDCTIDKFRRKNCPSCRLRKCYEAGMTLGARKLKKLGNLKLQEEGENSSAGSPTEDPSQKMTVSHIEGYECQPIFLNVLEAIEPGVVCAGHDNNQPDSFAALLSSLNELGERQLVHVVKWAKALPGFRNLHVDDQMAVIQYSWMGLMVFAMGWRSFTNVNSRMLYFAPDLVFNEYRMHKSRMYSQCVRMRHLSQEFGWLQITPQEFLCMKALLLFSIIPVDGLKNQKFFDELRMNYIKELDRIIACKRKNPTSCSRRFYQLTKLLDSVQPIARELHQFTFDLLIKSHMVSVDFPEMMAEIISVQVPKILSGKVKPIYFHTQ
# [9] = Inhibition of rat liver 5alpha-reductase using testosterone as substrate incubated for 30 mins measured for 10 mins by fluorescence assay
# Plasma = test: Retention time in Sprague-Dawley rat plasma at 0.2 mg/kg, po measured after 24 hrs by total ion chromatographic method; assay type: ADME, organism-based; conditions: in vivo
# [10] = Tmax in Sprague-Dawley rat at 0.2 mg/kg, po by LC-MS/MS analysis; assay type: ADME, organism-based; conditions: in vivo
# [11] = Elimination half-life in Sprague-Dawley rat at 0.2 mg/kg, po by LC-MS/MS analysis; assay type: ADME, organism-based; conditions: in vivo, read-out: beta t1/2 (converted)
# [12] = AUC (0 to infinity) in Sprague-Dawley rat at 0.2 mg/kg, po by LC-MS/MS analysis; assay type: ADME, organism-based; parameters: dose 0.2 mg/kg, route oral, time infinity; conditions: in vivo
# [13] = AUC (0 to t) in Sprague-Dawley rat at 0.2 mg/kg, po by LC-MS/MS analysis; assay type: ADME, organism-based; conditions: in vivo
# [14] = Cmax in Sprague-Dawley rat at 0.2 mg/kg, po by LC-MS/MS analysis; assay type: ADME, organism-based; parameters: dose 0.2 mg/kg, route oral; conditions: in vivo
# LNCaP [15] = test: Cytotoxicity against human LNCAP cells after 48 hrs by MTT assay; assay type: functional, cell-based
# [16] = Selectivity ratio of IC50 for human PC3 cells to IC50 for human LNCAP cells; assay type: functional
Compound,inhibition (Rattus norvegicus),inhibition of growth at 80 µM (LNCaP [1]),inhibition [2],inhibition of growth at 80 µM (PC-3 [3]),IC50 (PC-3 [4]),other results
C[C@]12CCC(=O)O[C@@H]1CC[C@@H]1[C@@H]2CC[C@]2(C)[C@@H](C(=O)Nc3ccccc3)CC[C@@H]12,67.3%,24.2%,7.09%,31.7%,86.2 µM,
C[C@]12CCC(=O)N[C@@H]1CC[C@@H]1[C@@H]2CC[C@]2(C)[C@@H](C(=O)Nc3ccccc3)CC[C@@H]12,,,,,,IC50 [5]: 0.41 µM; IC50 [6]: 0.015 µM; IC50 (Androgen receptor [7]): 23 µM
C[C@H]1CC(=O)C[C@@H]2CC[C@H]3[C@@H]4CC[C@H](O)[C@@]4(C)CC[C@@H]3[C@]21C [MESTEROLONE],,,,,,IC50 (Androgen receptor [8]): 18.3 µM
CC(C)(C)NC(=O)[C@H]1CC[C@H]2[C@@H]3CC[C@H]4NC(=O)C=C[C@]4(C)[C@H]3CC[C@]12C [FINASTERIDE],94.3%,,,0.4%,> 80 µM,IC50 [9]: 0.59 µM; Retention_time (Plasma): 3.5 min; Tmax [10]: 2.67 h; half-life [11]: 3.91 h; AUC(0-inf) [12]: 23.8 ng·h/mL; AUC(0-t) [13]: 23.5 ng·h/mL; Cmax [14]: 4.19 ng/mL
CCCCN(CCCC)C(=O)[C@H]1CC[C@H]2[C@@H]3CC[C@H]4OC(=O)CC[C@]4(C)[C@H]3CC[C@]12C,36.5%,88.9%,11.8%,89.9%,40.1 µM,IC50 (LNCaP [15]): 32.4 µM
C[C@]12CCC(=O)O[C@@H]1CC[C@@H]1[C@@H]2CC[C@]2(C)[C@@H](C(=O)N(c3ccccc3)c3ccccc3)CC[C@@H]12,15.5%,31.4%,3.29%,35.4%,75.2 µM,
CCN(CC)C(=O)[C@H]1CC[C@H]2[C@@H]3CC[C@H]4OC(=O)CC[C@]4(C)[C@H]3CC[C@]12C,39.5%,42.7%,33.7%,27.9%,68.2 µM,
C[C@]12CCC(=O)O[C@@H]1CC[C@@H]1[C@@H]2CC[C@]2(C)[C@@H](C(=O)Nc3ccc(F)cc3)CC[C@@H]12,46.9%,39.7%,18.9%,46.3%,50 µM,
CC(C)C(=O)Nc1ccc([N+](=O)[O-])c(C(F)(F)F)c1 [FLUTAMIDE],,63%,,21.2%,67.3 µM,IC50 (LNCaP [15]): 47.6 µM
C[C@]12CCC(=O)O[C@@H]1CC[C@@H]1[C@@H]2CC[C@]2(C)[C@@H](C(=O)N3CCCCC3)CC[C@@H]12,89.3%,12.3%,17.4%,26.2%,85.4 µM,IC50 [9]: 6.01 µM
C[C@]12CCC(=O)O[C@@H]1CC[C@@H]1[C@@H]2CC[C@]2(C)[C@@H](C(=O)N(C3CCCCC3)C3CCCCC3)CC[C@@H]12,33.4%,13.8%,11.3%,32%,74.3 µM,
CC(C)(C)NC(=O)[C@H]1CC[C@H]2[C@@H]3CC[C@H]4OC(=O)CC[C@]4(C)[C@H]3CC[C@]12C,48.3%,37.3%,3.73%,28.1%,70.1 µM,
CN(C(=O)[C@H]1CC[C@H]2[C@@H]3CC[C@H]4OC(=O)CC[C@]4(C)[C@H]3CC[C@]12C)c1ccccc1,84.2%,30%,14.3%,35.1%,62.2 µM,IC50 [9]: 0.89 µM
C[C@]12CCC(=O)O[C@@H]1CC[C@@H]1[C@@H]2CC[C@]2(C)[C@@H](C(=O)N(Cc3ccccc3)Cc3ccccc3)CC[C@@H]12,69.8%,81.8%,57.1%,12.9%,127 µM,Ratio IC50 [16]: 4; IC50 (LNCaP [15]): 29.8 µM; IC50 (Androgen receptor [8]): 16.8 µM
